In test [1] the test system is Candida albicans (WTBF-50). Description: Antifungal activity assay. The test is classed as cell-based.
Test [2] concerns Cryptococcus neoformans Cn18 (WTBF-106). Description: Antifungal activity assay. The following applies: MIC ratio versus P2. It counts as cell-based.
For a further test, the system named is C. albicans. Briefly: Time kill assays. The test is classed as cell-based, Candida albicans.

As a reminder, the MIC is the lowest concentration that inhibits growth of the organism. Lower therefore signals greater potency.

The structures appear in SMILES notation. Values after ≈ are worked out from the molar mass of the structure shown.

With `C[C@@H]1[C@H](O)[C@@H](C)/C=C/C=C/C=C/C=C/C=C/C=C/C=C/[C@H](O[C@@H]2O[C@H](C)[C@@H](O)[C@H](N)[C@@H]2O)C[C@@H]2O[C@](O)(C[C@@H](O)C[C@@H](O)[C@H](O)CC[C@@H](O)C[C@@H](O)CC(=O)O[C@H]1C)C[C@H](O)[C@H]2C(=O)O` [AMB, Amphotericin B, reference compound], inhibition of growth in test [1] (Candida albicans) (MIC) required 0.125 µg/mL (≈ 0.135 µM).
Turning to `CC1CNC(c2ccc3cc(-c4ccc(-c5cc6ccc(C7=NC(C)CN7)cc6[nH]5)cc4)[nH]c3c2)=N1.O=C(O)C(F)(F)F` (centres unmarked) [Compound P9], the “fold more potent than P2 against Cryptococcus neoformans” value in test [2] amounted to 6 fold.
With `O=C(O)C(F)(F)F.c1cc2cc(-c3ccc(-c4cc5ccc(C6=NCCCN6)cc5[nH]4)cc3)[nH]c2cc1C1=NCCCN1` [Compound P10], the “time to reduce viable cells below the limit of detection” value in the test with C. albicans (2× the MIC) is at most 8 h.
Take `CC(=O)O.c1cc2cc(-c3ccc(-c4ccn5cc(C6=NCCCN6)nc5c4)cc3)[nH]c2cc1C1=NCCCN1` [Compound P33]: the “fold more potent than P35 against Candida spp.” value in test [1] (MIC ratio versus P35) is on record as above 10 fold.
Turning to `CC(=O)O.c1cc2cc(-c3ccc(-c4ccc5cc(C6=NCCCN6)oc5c4)cc3)[nH]c2cc1C1=NCCCN1` [Compound P34], the “fungicidal activity relative to positive control” value with C. albicans (2× the MIC and 4× the MIC, versus AMB at 4× the MIC) is reported as “comparable to that of AMB”.
